Test results as given in US20110250454A1, “PREPARATION OF NEBIVOLOL” (priority 2010, published 2011).
Structures can show the parent of a compound that is named as a salt.

Key:
[1] = Specific surface area (BET); format: physicochemical; details: BET stated for Example 8; Hydrochloride
[2] = Particle size distribution (laser diffraction, Malvern instrument); format: physicochemical; details: Hydrochloride; for particle size distribution D10: 10 volume percent of particles smaller than value; for particle size distribution D50: 50 volume percent of particles smaller than value; for particle size distribution D90: 90 volume percent of particles smaller than value
Text: The D10, D50, and D90 values are useful ways for indicating particle size distributions. D90 refers to at least 90 volume percent of the particles having a size smaller than the given value. Likewise, D10 refers to 10 volume percent of the particles having a size smaller than the given value. D50 refers to 50 volume percent of the particles having a size smaller than the given value. Methods for determining D10, D50, and D90 include laser diffraction, such as using equipment from Malvern Instruments Ltd. of Malvern, Worcestershire, United Kingdom.

[3] = natural crystalline form, not micronized; cited from earlier work
[4] = natural crystalline form, not micronized; cited from earlier work; remark: listed apart in the source

Structure (SMILES): OC(CNCC(O)C1CCc2cc(F)ccc2O1)C1CCc2cc(F)ccc2O1 (stereo not shown) [Example 8, Nebivolol Hydrochloride]
- Specific surface area [1]: 1.2580 m^2/g
- particle size distribution D10 [2]: 3.94 μm
- particle size distribution D50 [2]: 19.1 μm
- particle size distribution D90 [2]: 48.4 μm

Structure (SMILES): OC(CNCC(O)C1CCc2cc(F)ccc2O1)C1CCc2cc(F)ccc2O1 (stereo not shown) [Example 52, Nebivolol Hydrochloride]
- particle size distribution D10 [2]: 1.753 μm
- particle size distribution D50 [2]: 4.571 μm
- particle size distribution D90 [2]: 15.180 μm

Structure (SMILES): OC(CNCC(O)C1CCc2cc(F)ccc2O1)C1CCc2cc(F)ccc2O1 (stereo not shown) [Example 53, Nebivolol Hydrochloride]
- particle size distribution D10 [2]: 1.87 μm
- particle size distribution D50 [2]: 4.46 μm
- particle size distribution D90 [2]: 11.72 μm

Structure (SMILES): OC(CNCC(O)C1CCc2cc(F)ccc2O1)C1CCc2cc(F)ccc2O1 (stereo not shown) [Example 54, Nebivolol Hydrochloride]
- particle size distribution D10 [2]: 1.314 μm
- particle size distribution D50 [2]: 3.363 μm
- particle size distribution D90 [2]: 7.80 μm

Structure (SMILES): OC(CNCC(O)C1CCc2cc(F)ccc2O1)C1CCc2cc(F)ccc2O1 (stereo not shown) [Example 55, Nebivolol Hydrochloride]
- particle size distribution D10 [2]: 2.37 μm
- particle size distribution D50 [2]: 6.29 μm
- particle size distribution D90 [2]: 25.76 μm

Structure (SMILES): OC(CNCC(O)C1CCc2cc(F)ccc2O1)C1CCc2cc(F)ccc2O1 (stereo not shown) [Example 56, Nebivolol Hydrochloride]
- Specific surface area [1]: 3.68 m^2/g
- particle size distribution D10 [2]: 1.23 μm
- particle size distribution D50 [2]: 3.17 μm
- particle size distribution D90 [2]: 10.75 μm

Structure (SMILES): OC(CNCC(O)C1CCc2cc(F)ccc2O1)C1CCc2cc(F)ccc2O1 (stereo not shown) [Example 60, Nebivolol Hydrochloride]
- particle size distribution D10 [2]: 1.43 μm
- particle size distribution D50 [2]: 3.52 μm
- particle size distribution D90 [2]: 9.35 μm

Structure (SMILES): OC(CNCC(O)C1CCc2cc(F)ccc2O1)C1CCc2cc(F)ccc2O1 (stereo not drawn) [nebivolol hydrochloride, (1RS,1′RS)-1,1′-[(2RS,2′SR)-bis(6-fluoro-3,4-dihydro-2H-1-benzopyran-2-yl)]-2,2′-iminodiethanol]
- dissolution rate [3]: poor
- bioavailability [4]: poor
